The record followed here is patent US6632978B1, “Transgenic animals for studying regulation of genes” (Novartis AG, priority 1999, dated 2003).

One test deals with SEAP expression. Briefly: Effect of inhibitory compounds on TNF-induced SEAP expression. Format: in vivo, mouse. The following applies: for inhibition of marker enzyme (SEAP) expression: SEAP-1 animals (Example 2), 1 mg/kg i.v.; for modification of SEAP expression: SEAP-2 animals. As for the experimental part:
Test 5: Effect of Inhibitory Compounds on SEAP Expression.
Clasto-lactacystine-β-lactone, a commercially available proteasome inhibitor is dissolved in DMSO (10 μl/100 μg) and further diluted with 90 μl Peg300. This mixture is further diluted 1:10 in saline and injected i.v. to animals of Example 2 at a dose of 1 mg/kg. Ten to 15 min later TNF is administered i.p. to compound-treated or untreated animals of Example 2. Blood samples are taken from the animals at baseline, 6 hours and 24 hours and SEAP levels analyzed.

Test [1] concerns SEAP expression under the control of the E-selectin regulatory sequence. Briefly: LPS and cytokine induction of SEAP expression in heterozygous mice. It is filed as in vivo, mouse. Particulars: either line (SEAP-1, SEAP-2). The method, then:
Test 1: LPS and Cytokine Induction of SEAP Expression in Heterozygous Mice.
Heterozygous mice of Example 1 and Example 2 are injected with LPS (Sigma, Serotype 0:111B4 Cat. L4130) at a dose of 25 μg per mouse. Murine recombinant TNFα (R&D Systems, Cat No. 410-MT) is diluted in sterile saline and administered at a dose of 500 ng/mouse. Administration is intravenously, e.g., into the tail vein, subcutaneously or intraperitoneally.
Blood for analysis is taken from a superficial vein of the mouse into heparinized glass hematocrit capillaries. The blood is centrifuged in a table-top Eppendorff centrifuge at maximal speed for 5 min to prepare plasma.
A standard curve is created with human placental alkaline phosphatase (PAP) (Sigma Cat. P-3895). A stock solution of 2 mg/ml dissolved in buffer (Tris/HCl 50 mM pH 7.4; NaCl 150 mM; BSA 1%) is stored at −80° C. in aliquots. The standard curve is diluted in mouse plasma containing Heparin. The range of the standard curve is between 0.5 and 50000 ng/mL PAP.
For the enzyme assay the Tropix Kit (Tropix, Cat. No BP300) is used.
The results are plotted in FIGS. 3 and 4. […] The maximal levels of plasma SEAP are reached at 6 hours post-stimulation in animals of Example 2, the maximum reached in animals of Example 1 is not seen until 24 hours post stimulation. SEAP-2 mice express about 1000-fold more marker enzyme than SEAourP-1 animals. […]

Regarding `CC(C)[C@H](O)[C@@]12NC(=O)[C@H](C)[C@@H]1OC2=O` [clasto-lactacystine-β-lactone, Clasto-lactacystine-β-lactone], the entries for the “inhibition of marker enzyme (SEAP) expression” value with SEAP expression (6 hours after TNF) and with SEAP expression (24 hours after TNF) were “significant inhibition” and “no effect”, respectively. The “modification of SEAP expression” value in the test on SEAP expression (6 hours after TNF) and in the test with SEAP expression (24 hours after TNF) was “does not modify” in each case.

B1: IFNg: IFNg, known not to induce E-selectin in vitro; control cytokine (protein, UniProt P01579 24-161, looked up)
Interferon gamma: QDPYVKEAENLKKYFNAGHSDVADNGTLFLGILKNWKEESDRKIMQSQIVSFYFKLFKNFKDDQSIQKSVETIKEDMNVKFFNSNKKKRDDFEKLTNYSVTDLNVQRKAIHELIQVMAELSPAAKTGKRKRSQMLFRG
Consider B1, for which, in test [1], the “effect on SEAP induction” value is reported as “no effect”.
